Test results from PMC6576746, “Rational discovery of dual-indication multi-target PDE/Kinase inhibitor for precision anti-cancer therapy using structural systems pharmacology” (PLoS Computational Biology, 2019).

Columns and labels:
Test in all cases: biochemical
Set-up in all cases: DiscoverX KinomeScan competition binding assay across human kinases; per cent of control at 10 and 100 uM
[1] = molecular target: T1, RSK4(Kin.Dom.1-N-terminal) (Homo sapiens, UniProt Q9UK32); details: competition binding, % of control; read-out: Percent Control (100 uM Levosimendan)
T1 construct: gene RPS6KA6; Kin.Dom.1-N-terminal
Method in brief: (§1)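 Binding is expressed as %control, normalised between positive and negative control signals. The compound (levosimendan) was tested at 10 μM and 100 μM in the DiscoverX KinomeScan competition binding format against human kinases.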

HIPK4 = HIPK4 (Homo sapiens, UniProt Q8NE63); details: competition binding, % of control; read-out: Percent Control (100 uM Levosimendan)
Method in brief: as §1

TNIK = TNIK (Homo sapiens, UniProt Q9UKE5); details: competition binding, % of control
Sequence of TNIK (Q9UKE5 whole entry): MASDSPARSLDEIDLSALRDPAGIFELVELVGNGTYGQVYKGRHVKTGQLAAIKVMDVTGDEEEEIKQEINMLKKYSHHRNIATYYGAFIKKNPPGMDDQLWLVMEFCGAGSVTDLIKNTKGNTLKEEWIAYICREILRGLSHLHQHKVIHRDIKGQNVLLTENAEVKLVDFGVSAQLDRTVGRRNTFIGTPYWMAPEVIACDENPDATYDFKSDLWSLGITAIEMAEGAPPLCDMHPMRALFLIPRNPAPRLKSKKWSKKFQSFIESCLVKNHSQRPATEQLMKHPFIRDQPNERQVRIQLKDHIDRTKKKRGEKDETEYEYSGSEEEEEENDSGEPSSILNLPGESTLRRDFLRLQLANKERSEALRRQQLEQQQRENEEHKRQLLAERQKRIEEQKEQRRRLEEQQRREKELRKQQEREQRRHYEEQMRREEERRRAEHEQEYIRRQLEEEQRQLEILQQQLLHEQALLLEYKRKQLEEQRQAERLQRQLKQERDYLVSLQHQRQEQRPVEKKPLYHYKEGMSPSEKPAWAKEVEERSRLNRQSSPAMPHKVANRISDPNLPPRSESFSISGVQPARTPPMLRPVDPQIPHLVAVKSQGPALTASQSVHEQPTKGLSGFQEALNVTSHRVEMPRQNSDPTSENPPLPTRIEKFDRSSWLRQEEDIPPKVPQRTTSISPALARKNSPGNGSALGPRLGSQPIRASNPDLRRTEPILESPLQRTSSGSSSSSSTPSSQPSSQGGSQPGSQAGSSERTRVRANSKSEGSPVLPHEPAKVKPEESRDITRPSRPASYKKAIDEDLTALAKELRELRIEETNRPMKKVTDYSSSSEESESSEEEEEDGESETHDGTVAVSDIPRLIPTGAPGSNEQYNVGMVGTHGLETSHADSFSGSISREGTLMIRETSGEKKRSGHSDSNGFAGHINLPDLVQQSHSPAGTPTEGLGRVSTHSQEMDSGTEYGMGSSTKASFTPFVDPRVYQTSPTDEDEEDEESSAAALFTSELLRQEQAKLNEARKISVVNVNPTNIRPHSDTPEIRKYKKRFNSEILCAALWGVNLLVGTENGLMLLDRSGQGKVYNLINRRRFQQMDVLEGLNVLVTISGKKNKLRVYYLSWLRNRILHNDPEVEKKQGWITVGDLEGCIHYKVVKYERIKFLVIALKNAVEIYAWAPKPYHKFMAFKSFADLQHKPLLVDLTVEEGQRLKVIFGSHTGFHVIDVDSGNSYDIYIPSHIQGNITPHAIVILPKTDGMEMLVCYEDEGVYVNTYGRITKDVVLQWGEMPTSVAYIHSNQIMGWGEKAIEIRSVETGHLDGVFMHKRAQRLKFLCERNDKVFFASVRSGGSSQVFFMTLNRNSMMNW
Method in brief: as §1

ITK = ITK (Homo sapiens, UniProt Q08881); details: competition binding, % of control; read-out: Percent Control (100 uM Levosimendan)
Method in brief: as §1

LZK = molecular target: T2, LZK (Homo sapiens, UniProt O43283); details: competition binding, % of control; read-out: Percent Control (100 uM Levosimendan)
T2 construct: gene MAP3K13
Method in brief: as §1

p38-gamma = molecular target: T3, p38-gamma (Homo sapiens, UniProt P53778); details: competition binding, % of control
T3 construct: gene MAPK12
T3 sequence (P53778 whole entry): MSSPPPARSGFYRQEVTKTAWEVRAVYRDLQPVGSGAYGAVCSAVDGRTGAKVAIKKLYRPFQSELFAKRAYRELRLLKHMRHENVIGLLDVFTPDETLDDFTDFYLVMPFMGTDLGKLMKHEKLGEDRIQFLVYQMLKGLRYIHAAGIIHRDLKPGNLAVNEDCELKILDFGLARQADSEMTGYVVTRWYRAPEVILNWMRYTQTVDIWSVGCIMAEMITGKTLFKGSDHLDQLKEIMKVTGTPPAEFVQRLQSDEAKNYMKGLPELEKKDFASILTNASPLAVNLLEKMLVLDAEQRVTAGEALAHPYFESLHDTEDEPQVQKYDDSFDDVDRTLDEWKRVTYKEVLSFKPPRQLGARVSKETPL
Method in brief: as §1

MELK = MELK (Homo sapiens, UniProt Q14680); details: competition binding, % of control; read-out: Percent Control (100 uM Levosimendan)
Method in brief: as §1

CAMK1B = molecular target: T4, CAMK1B (Homo sapiens, UniProt Q6P2M8); details: competition binding, % of control; read-out: Percent Control (100 uM Levosimendan)
T4 construct: gene PNCK
Method in brief: as §1

TRKA = molecular target: T5, TRKA (Homo sapiens, UniProt P04629); details: competition binding, % of control; read-out: Percent Control (100 uM Levosimendan)
T5 construct: gene NTRK1
Method in brief: as §1

LYN = LYN (Homo sapiens, UniProt P07948); details: competition binding, % of control; read-out: Percent Control (100 uM Levosimendan)
Method in brief: as §1

MRCKB = molecular target: T6, MRCKB (Homo sapiens, UniProt Q9Y5S2); details: competition binding, % of control; read-out: Percent Control (100 uM Levosimendan)
T6 construct: gene CDC42BPB
T6 sequence (Q9Y5S2 whole entry): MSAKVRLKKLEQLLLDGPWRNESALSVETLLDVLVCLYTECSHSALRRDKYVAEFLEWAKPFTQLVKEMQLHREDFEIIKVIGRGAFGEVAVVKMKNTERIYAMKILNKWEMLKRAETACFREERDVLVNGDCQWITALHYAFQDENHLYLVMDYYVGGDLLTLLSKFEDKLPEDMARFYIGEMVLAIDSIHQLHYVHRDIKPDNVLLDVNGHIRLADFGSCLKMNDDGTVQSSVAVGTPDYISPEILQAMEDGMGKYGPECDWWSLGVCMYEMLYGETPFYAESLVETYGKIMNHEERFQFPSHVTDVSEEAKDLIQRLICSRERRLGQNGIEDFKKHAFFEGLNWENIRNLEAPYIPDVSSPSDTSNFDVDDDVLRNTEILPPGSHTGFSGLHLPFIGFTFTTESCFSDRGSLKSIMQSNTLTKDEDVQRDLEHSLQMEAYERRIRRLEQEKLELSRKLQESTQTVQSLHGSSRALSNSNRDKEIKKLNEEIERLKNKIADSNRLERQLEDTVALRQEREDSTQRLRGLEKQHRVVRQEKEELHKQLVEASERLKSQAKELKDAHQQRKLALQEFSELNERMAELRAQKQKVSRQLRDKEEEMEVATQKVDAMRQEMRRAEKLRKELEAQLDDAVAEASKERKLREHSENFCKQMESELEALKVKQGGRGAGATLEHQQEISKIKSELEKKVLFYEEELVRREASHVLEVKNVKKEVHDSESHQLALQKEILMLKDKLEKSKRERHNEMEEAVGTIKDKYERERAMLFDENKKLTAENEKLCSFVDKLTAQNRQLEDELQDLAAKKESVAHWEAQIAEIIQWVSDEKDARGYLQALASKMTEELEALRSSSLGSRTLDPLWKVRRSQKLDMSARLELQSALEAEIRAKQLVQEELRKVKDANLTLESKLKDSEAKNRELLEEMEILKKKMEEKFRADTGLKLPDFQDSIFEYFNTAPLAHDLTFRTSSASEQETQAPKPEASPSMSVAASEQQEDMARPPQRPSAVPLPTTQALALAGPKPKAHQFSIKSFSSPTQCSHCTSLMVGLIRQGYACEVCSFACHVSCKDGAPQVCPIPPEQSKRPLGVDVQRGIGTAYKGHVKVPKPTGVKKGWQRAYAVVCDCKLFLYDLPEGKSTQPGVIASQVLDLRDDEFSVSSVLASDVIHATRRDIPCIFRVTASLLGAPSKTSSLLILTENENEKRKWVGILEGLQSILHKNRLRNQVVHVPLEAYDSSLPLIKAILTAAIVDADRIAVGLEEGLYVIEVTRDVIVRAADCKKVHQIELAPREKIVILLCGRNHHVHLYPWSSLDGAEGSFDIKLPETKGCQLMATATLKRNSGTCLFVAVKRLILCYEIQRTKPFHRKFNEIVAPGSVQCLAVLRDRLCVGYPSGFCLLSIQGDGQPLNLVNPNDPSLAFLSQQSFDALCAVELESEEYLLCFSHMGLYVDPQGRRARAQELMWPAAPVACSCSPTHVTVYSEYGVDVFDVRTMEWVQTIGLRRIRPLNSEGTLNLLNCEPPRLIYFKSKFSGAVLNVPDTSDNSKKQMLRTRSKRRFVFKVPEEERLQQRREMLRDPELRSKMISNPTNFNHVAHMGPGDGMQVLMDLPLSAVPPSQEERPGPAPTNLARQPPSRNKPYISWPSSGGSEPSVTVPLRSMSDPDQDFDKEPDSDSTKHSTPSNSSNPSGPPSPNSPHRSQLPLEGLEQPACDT
Method in brief: as §1

PRKCD = PRKCD (Homo sapiens, UniProt Q05655); details: competition binding, % of control
Sequence of PRKCD (Q05655 whole entry): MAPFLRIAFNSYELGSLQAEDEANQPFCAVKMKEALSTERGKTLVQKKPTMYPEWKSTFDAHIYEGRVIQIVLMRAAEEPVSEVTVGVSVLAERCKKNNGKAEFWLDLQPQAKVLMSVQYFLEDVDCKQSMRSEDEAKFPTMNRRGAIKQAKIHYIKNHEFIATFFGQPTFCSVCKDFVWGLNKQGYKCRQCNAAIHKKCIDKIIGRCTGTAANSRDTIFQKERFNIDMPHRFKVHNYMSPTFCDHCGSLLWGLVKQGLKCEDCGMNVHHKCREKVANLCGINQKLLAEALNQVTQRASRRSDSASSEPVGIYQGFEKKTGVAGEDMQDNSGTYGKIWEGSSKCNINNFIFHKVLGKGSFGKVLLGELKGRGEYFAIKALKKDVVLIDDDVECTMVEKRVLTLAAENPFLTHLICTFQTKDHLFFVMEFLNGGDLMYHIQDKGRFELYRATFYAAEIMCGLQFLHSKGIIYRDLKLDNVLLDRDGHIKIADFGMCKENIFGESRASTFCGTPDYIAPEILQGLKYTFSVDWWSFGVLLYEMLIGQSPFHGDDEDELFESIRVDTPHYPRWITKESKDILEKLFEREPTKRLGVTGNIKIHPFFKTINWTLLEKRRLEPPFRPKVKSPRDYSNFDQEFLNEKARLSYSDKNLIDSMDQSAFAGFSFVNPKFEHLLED
Method in brief: as §1

STK39 = STK39 (Homo sapiens, UniProt Q9UEW8); details: competition binding, % of control; read-out: Percent Control (100 uM Levosimendan)
Method in brief: as §1

MEK5 = molecular target: T7, MEK5 (Homo sapiens, UniProt Q13163); details: competition binding, % of control
T7 construct: gene MAP2K5
T7 sequence (Q13163 whole entry): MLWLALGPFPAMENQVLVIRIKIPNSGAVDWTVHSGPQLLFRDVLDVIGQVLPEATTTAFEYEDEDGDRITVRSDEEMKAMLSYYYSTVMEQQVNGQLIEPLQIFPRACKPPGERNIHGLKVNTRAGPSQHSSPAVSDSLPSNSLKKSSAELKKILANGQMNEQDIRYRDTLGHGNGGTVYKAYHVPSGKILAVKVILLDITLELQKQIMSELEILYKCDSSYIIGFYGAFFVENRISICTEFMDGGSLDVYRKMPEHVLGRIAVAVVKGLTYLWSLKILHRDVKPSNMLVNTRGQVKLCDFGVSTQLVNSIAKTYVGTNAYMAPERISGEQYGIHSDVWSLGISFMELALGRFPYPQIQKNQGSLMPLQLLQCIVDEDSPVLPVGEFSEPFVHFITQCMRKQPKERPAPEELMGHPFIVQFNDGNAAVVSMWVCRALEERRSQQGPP
Method in brief: as §1

DRAK2 = molecular target: T8, DRAK2 (Homo sapiens, UniProt O94768); details: competition binding, % of control
T8 construct: gene STK17B
T8 sequence (O94768 whole entry): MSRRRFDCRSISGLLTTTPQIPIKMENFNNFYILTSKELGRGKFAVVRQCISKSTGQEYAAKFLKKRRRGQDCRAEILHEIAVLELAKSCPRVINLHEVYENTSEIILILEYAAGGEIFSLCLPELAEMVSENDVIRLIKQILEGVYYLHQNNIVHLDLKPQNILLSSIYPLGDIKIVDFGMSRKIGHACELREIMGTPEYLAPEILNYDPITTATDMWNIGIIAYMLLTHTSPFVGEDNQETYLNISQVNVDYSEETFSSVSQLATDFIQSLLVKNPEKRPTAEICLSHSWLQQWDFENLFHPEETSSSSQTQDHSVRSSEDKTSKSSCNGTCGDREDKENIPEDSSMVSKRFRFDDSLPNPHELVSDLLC
Method in brief: as §1

WNK1 = WNK1 (Homo sapiens, UniProt Q9H4A3); details: competition binding, % of control; read-out: Percent Control (100 uM Levosimendan)
Method in brief: as §1

MTOR = MTOR (Homo sapiens, UniProt P42345); details: competition binding, % of control; read-out: Percent Control (100 uM Levosimendan)
Method in brief: as §1

LIMK2 = LIMK2 (Homo sapiens, UniProt P53671); details: competition binding, % of control; read-out: Percent Control (100 uM Levosimendan)
Method in brief: as §1

ULK3 = ULK3 (Homo sapiens, UniProt Q6PHR2); details: competition binding, % of control; read-out: Percent Control (100 uM Levosimendan)
Method in brief: as §1

[2] = read-out: Percent Control (10 uM Levosimendan)
[3] = read-out: Percent Control (100 uM Levosimendan)

remaining binding at 100 µM [1]: 100%
remaining binding at 100 µM (HIPK4): 84%
remaining binding at 10 µM (TNIK; [2]): 77%
remaining binding at 100 µM (TNIK; [3]): 32%
remaining binding at 100 µM (ITK): 86%
remaining binding at 100 µM (LZK): 100%
remaining binding at 10 µM (p38-gamma; [2]): 92%
remaining binding at 100 µM (p38-gamma; [3]): 52%
remaining binding at 100 µM (MELK): 100%
remaining binding at 100 µM (CAMK1B): 100%
remaining binding at 100 µM (TRKA): 65%
remaining binding at 100 µM (LYN): 69%
remaining binding at 100 µM (MRCKB): 74%
remaining binding at 10 µM (PRKCD; [2]): 93%
remaining binding at 100 µM (PRKCD; [3]): 48%
remaining binding at 100 µM (STK39): 100%
remaining binding at 10 µM (MEK5; [2]): 17%
remaining binding at 100 µM (MEK5; [3]): 2.6%
remaining binding at 10 µM (DRAK2; [2]): 99%
remaining binding at 100 µM (DRAK2; [3]): 20%
remaining binding at 100 µM (WNK1): 100%
remaining binding at 100 µM (MTOR): 100%
remaining binding at 100 µM (LIMK2): 87%
remaining binding at 100 µM (ULK3): 77%
SMILES: C[C@@H]1CC(=O)NN=C1c1ccc(NN=C(C#N)C#N)cc1 [levosimendan]
